Results published in article PMC5362750, “Discovery of Potent, Selective, and Orally Bioavailable Small-Molecule Modulators of the Mediator Complex-Associated Kinases CDK8 and CDK19” (Journal of Medicinal Chemistry, 2016).
Read-outs that look alike come from different tables or passages of the source.

Tests used:
[1] = molecular target: GRK7 (Homo sapiens, UniProt Q8WTQ7); experiment: Kinase panel (Millipore); assay type: biochemical; settings: 1 µM, ATP at Km
[2] = molecular target: CSK (Homo sapiens, UniProt P41240); experiment: Kinase panel (Millipore); assay type: biochemical; settings: 1 µM, ATP at Km
[3] = molecular target: T1, WNK3 (Homo sapiens, UniProt Q9BYP7); experiment: Kinase panel (Millipore); assay type: biochemical; settings: 1 µM, ATP at Km
T1 construct: purchased Millipore (KinaseProfiler) kinase panel

[4] = molecular target: GABAA1 (h) (alpha 1,beta 2,gamma 2) (Homo sapiens, UniProt P14867+P47870); experiment: biochemical; settings: read-out: % Inhibition of Control Specific Binding
[5] = molecular target: T2, PLK3 (Homo sapiens, UniProt Q9H4B4); experiment: Kinase panel (Millipore); assay type: biochemical; settings: 1 µM, ATP at Km
T2 construct: purchased Millipore (KinaseProfiler) kinase panel

[6] = molecular target: N neuronal alpha 4beta 2 (h) (Homo sapiens, UniProt P17787+P43681); experiment: biochemical; settings: read-out: % Inhibition of Control Specific Binding
[7] = molecular target: T3, EPHB3 (Homo sapiens, UniProt P54753); experiment: Kinase panel (Millipore); assay type: biochemical; settings: 1 µM, ATP at Km
T3 construct: purchased Millipore (KinaseProfiler) kinase panel

[8] = molecular target: ERalpha (h) (Homo sapiens, UniProt P03372); experiment: CEREP binding assay; settings: agonist fluoligand, read-out: % Inhibition of Control Specific Binding
[9] = molecular target: RET(V804L) (Homo sapiens, UniProt P07949, V804L); settings: 1 µM, ATP at Km
[10] = molecular target: T4, PRAK (Homo sapiens, UniProt Q8IW41); experiment: Kinase panel (Millipore); assay type: biochemical; settings: 1 µM, ATP at Km
T4 construct: purchased Millipore (KinaseProfiler) kinase panel

[11] = molecular target: N muscle-type (h) (Homo sapiens, UniProt P02708+P07510+Q07001); experiment: biochemical; settings: read-out: % Inhibition of Control Specific Binding
[12] = molecular target: MAPK1 (Homo sapiens, UniProt P27361); experiment: Kinase panel (Millipore); assay type: biochemical; settings: 1 µM, ATP at Km
[13] = molecular target: T5, MELK (Homo sapiens, UniProt Q14680); experiment: Kinase panel (Millipore); assay type: biochemical; settings: 1 µM, ATP at Km
T5 construct: purchased Millipore (KinaseProfiler) kinase panel

[14] = molecular target: T6, PDGFRALPHA (Homo sapiens, UniProt P16234); experiment: Kinase panel (Millipore); assay type: biochemical; settings: 1 µM, ATP at Km
T6 construct: purchased Millipore (KinaseProfiler) kinase panel

[15] = molecular target: PAK6 (Homo sapiens, UniProt Q9NQU5); experiment: Kinase panel (Millipore); assay type: biochemical; settings: 1 µM, ATP at Km
[16] = molecular target: PIM-1 (Homo sapiens, UniProt P11309); experiment: Kinase panel (Millipore); assay type: biochemical; settings: 1 µM, ATP at Km
Chain of PIM-1 (P11309 whole entry): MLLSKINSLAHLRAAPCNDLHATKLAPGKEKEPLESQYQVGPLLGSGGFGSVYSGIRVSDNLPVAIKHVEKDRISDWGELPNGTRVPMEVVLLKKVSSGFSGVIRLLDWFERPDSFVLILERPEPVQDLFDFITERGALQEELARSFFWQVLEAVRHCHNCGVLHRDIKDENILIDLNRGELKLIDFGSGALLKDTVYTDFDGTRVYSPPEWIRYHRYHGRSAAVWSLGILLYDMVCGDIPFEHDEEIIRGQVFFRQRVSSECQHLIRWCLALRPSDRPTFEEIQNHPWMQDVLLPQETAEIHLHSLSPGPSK

[17] = molecular target: T7, MST3 (Homo sapiens, UniProt Q9Y6E0); experiment: Kinase panel (Millipore); assay type: biochemical; settings: 1 µM, ATP at Km
T7 construct: purchased Millipore (KinaseProfiler) kinase panel
T7 sequence (Q9Y6E0 whole entry): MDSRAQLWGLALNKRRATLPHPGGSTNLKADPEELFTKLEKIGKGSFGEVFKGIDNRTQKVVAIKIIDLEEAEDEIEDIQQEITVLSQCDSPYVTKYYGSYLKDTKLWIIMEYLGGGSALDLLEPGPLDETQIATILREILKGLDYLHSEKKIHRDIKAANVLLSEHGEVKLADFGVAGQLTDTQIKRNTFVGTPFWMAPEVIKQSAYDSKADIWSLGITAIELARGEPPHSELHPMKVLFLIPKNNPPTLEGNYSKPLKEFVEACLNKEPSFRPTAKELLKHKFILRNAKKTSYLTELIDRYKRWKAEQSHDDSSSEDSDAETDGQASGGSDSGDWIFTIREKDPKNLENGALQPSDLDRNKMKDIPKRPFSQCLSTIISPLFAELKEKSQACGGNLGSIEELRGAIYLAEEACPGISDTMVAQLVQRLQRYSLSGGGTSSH

[18] = molecular target: FGFR1(V561M) (Homo sapiens, UniProt P11362, V561M); settings: 1 µM, ATP at Km
Chain of FGFR1(V561M) (P11362 22-822 V561M): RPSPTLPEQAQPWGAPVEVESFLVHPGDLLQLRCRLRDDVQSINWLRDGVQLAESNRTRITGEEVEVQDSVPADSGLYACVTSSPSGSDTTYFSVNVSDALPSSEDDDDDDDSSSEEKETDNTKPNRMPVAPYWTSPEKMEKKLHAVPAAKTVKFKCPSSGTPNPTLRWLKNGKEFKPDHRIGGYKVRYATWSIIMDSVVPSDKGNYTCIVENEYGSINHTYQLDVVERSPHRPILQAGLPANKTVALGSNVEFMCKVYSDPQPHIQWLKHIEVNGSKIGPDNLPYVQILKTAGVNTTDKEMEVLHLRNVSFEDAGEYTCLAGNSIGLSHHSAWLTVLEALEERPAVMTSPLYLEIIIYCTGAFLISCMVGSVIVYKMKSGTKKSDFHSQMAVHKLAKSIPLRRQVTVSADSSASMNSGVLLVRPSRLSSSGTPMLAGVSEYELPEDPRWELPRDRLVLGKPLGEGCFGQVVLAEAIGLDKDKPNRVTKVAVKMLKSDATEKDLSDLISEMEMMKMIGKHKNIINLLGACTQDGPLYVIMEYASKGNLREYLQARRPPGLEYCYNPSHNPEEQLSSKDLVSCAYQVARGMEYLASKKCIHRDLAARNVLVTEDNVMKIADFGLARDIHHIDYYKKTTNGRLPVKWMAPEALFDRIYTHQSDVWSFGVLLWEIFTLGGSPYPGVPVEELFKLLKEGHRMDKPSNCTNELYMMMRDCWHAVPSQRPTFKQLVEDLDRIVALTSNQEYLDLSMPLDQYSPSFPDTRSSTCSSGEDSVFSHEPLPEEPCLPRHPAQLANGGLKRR

[19] = molecular target: T8, TRKB (Homo sapiens, UniProt Q16620); experiment: Kinase panel (Millipore); assay type: biochemical; settings: 1 µM, ATP at Km
T8 construct: purchased Millipore (KinaseProfiler) kinase panel
T8 sequence (Q16620 32-822): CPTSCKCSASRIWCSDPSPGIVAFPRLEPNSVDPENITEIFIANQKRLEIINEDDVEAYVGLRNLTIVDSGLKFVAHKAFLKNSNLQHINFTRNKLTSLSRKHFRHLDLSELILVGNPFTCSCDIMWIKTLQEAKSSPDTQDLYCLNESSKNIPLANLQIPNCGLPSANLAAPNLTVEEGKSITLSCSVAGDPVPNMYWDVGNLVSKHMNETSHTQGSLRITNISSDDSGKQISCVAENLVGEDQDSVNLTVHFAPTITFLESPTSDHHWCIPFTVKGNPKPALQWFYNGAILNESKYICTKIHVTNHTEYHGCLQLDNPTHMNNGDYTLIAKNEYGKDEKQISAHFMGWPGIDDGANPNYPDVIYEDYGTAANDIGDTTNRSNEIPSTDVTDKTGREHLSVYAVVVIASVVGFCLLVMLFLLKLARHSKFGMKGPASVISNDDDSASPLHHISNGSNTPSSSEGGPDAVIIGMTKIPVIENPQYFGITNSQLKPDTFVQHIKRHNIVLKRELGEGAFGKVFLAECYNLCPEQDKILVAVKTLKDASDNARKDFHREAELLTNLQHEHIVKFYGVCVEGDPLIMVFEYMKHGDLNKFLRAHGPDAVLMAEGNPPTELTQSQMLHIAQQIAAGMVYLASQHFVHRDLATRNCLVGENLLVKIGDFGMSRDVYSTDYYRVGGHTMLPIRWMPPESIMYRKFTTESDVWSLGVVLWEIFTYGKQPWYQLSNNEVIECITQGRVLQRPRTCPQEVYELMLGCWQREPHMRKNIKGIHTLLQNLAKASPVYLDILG

[20] = molecular target: CK1DELTA (Homo sapiens, UniProt P48730); experiment: Kinase panel (Millipore); assay type: biochemical; settings: 1 µM, ATP at Km
[21] = molecular target: T9, GRK6 (Homo sapiens, UniProt P43250); experiment: Kinase panel (Millipore); assay type: biochemical; settings: 1 µM, ATP at Km
T9 construct: purchased Millipore (KinaseProfiler) kinase panel

[22] = molecular target: T10, BMX (Homo sapiens, UniProt P51813); experiment: Kinase panel (Millipore); assay type: biochemical; settings: 1 µM, ATP at Km
T10 construct: purchased Millipore (KinaseProfiler) kinase panel
T10 sequence (P51813 whole entry): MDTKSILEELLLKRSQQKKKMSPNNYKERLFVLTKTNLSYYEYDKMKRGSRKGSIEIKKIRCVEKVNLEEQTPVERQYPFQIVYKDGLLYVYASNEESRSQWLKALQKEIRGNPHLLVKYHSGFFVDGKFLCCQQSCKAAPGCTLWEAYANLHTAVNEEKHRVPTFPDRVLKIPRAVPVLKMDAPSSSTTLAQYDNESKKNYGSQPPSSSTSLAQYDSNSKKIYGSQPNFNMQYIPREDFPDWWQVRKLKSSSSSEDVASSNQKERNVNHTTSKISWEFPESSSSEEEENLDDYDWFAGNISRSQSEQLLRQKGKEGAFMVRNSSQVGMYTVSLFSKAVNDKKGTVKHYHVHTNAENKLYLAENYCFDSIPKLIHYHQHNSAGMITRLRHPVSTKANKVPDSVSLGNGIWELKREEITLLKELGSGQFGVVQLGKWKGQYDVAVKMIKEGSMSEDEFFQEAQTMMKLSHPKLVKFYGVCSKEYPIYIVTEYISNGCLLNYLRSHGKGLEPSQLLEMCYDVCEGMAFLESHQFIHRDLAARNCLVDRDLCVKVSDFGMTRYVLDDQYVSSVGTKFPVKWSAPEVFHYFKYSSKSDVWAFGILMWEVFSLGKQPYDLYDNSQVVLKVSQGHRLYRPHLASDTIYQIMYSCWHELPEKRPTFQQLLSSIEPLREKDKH

[23] = molecular target: T11, PTK5 (Homo sapiens, UniProt P42685); experiment: Kinase panel (Millipore); assay type: biochemical; settings: 1 µM, ATP at Km
T11 construct: purchased Millipore (KinaseProfiler) kinase panel

[24] = molecular target: 5-HT4e (h) (Homo sapiens, UniProt Q13639); experiment: biochemical; settings: read-out: % Inhibition of Control Specific Binding
[25] = molecular target: CDK2/CYCLINE (Homo sapiens, UniProt P24941); settings: 1 µM, ATP at Km
[26] = molecular target: T12, TAO3 (Homo sapiens, UniProt Q9H2K8); experiment: Kinase panel (Millipore); assay type: biochemical; settings: 1 µM, ATP at Km
T12 construct: purchased Millipore (KinaseProfiler) kinase panel

[27] = molecular target: T13, H4 (h) (Homo sapiens, UniProt Q9H3N8); experiment: CEREP binding assay; settings: agonist radioligand, read-out: % Inhibition of Control Specific Binding
T13 construct: purchased Millipore (KinaseProfiler) kinase panel

[28] = molecular target: T14, PKG1BETA (Homo sapiens, UniProt Q13976); experiment: Kinase panel (Millipore); assay type: biochemical; settings: 1 µM, ATP at Km
T14 construct: purchased Millipore (KinaseProfiler) kinase panel
T14 sequence (Q13976 1-686 isoform Q13976-2): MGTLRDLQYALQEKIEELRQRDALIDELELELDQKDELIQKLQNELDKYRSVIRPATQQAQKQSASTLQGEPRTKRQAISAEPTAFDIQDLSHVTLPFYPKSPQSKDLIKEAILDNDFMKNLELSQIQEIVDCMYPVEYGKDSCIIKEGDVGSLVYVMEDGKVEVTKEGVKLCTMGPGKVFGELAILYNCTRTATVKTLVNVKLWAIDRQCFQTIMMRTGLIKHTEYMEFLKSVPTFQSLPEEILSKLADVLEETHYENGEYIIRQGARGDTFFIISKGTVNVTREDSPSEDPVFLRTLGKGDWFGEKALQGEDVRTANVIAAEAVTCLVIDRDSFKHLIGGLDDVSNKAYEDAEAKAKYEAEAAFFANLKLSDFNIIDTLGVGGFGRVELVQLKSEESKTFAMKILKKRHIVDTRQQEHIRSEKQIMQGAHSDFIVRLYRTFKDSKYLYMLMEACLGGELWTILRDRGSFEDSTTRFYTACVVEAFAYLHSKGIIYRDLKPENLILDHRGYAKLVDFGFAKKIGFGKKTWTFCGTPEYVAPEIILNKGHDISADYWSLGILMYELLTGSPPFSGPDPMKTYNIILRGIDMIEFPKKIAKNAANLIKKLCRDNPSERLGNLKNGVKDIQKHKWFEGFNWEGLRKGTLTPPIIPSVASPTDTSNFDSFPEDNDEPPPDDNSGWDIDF

[29] = molecular target: glucagon (h) (Homo sapiens, UniProt P47871); experiment: biochemical; settings: read-out: % Inhibition of Control Specific Binding
[30] = molecular target: T15, MUSK (Homo sapiens, UniProt O15146); experiment: Kinase panel (Millipore); assay type: biochemical; settings: 1 µM, ATP at Km
T15 construct: purchased Millipore (KinaseProfiler) kinase panel

[31] = molecular target: PLK1 (Homo sapiens, UniProt P53350); experiment: Kinase panel (Millipore); assay type: biochemical; settings: 1 µM, ATP at Km
[32] = in vivo; settings: male, rat, 0.2 mg/kg
[33] = test system: sigma (non-selective) (h); settings: 10 µM, agonist radioligand
[34] = molecular target: D3 (h) (Homo sapiens, UniProt P35462); experiment: biochemical; settings: read-out: % Inhibition of Control Specific Binding
[35] = molecular target: CK1GAMMA2 (Homo sapiens, UniProt P78368); experiment: Kinase panel (Millipore); assay type: biochemical; settings: 1 µM, ATP at Km
[36] = molecular target: T16, HIPK1 (Homo sapiens, UniProt Q86Z02); experiment: Kinase panel (Millipore); assay type: biochemical; settings: 1 µM, ATP at Km
T16 construct: purchased Millipore (KinaseProfiler) kinase panel

[37] = molecular target: JNK1ALPHA1 (Homo sapiens, UniProt P45983); experiment: Kinase panel (Millipore); assay type: biochemical; settings: 1 µM, ATP at Km
Chain of JNK1ALPHA1 (P45983 1-384 isoform P45983-2): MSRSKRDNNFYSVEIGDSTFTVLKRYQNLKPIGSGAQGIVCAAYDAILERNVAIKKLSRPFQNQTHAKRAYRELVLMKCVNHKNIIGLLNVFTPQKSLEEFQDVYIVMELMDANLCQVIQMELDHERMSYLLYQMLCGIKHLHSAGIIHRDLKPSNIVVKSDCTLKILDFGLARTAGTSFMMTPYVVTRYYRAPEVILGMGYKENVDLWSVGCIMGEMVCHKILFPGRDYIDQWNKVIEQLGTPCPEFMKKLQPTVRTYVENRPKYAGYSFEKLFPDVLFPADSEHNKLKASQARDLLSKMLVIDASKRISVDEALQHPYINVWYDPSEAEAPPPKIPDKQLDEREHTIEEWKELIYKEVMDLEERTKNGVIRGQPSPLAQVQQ

[38] = molecular target: T17, MET (Homo sapiens, UniProt P08581); experiment: Kinase panel (Millipore); assay type: biochemical; settings: 1 µM, ATP at Km
T17 construct: purchased Millipore (KinaseProfiler) kinase panel

[39] = molecular target: EEF-2K (Homo sapiens, UniProt O00418); experiment: Kinase panel (Millipore); assay type: biochemical; settings: 1 µM, ATP at Km
[40] = molecular target: MSK1 (Homo sapiens, UniProt O75582); experiment: Kinase panel (Millipore); assay type: biochemical; settings: 1 µM, ATP at Km
Chain of MSK1 (O75582 whole entry): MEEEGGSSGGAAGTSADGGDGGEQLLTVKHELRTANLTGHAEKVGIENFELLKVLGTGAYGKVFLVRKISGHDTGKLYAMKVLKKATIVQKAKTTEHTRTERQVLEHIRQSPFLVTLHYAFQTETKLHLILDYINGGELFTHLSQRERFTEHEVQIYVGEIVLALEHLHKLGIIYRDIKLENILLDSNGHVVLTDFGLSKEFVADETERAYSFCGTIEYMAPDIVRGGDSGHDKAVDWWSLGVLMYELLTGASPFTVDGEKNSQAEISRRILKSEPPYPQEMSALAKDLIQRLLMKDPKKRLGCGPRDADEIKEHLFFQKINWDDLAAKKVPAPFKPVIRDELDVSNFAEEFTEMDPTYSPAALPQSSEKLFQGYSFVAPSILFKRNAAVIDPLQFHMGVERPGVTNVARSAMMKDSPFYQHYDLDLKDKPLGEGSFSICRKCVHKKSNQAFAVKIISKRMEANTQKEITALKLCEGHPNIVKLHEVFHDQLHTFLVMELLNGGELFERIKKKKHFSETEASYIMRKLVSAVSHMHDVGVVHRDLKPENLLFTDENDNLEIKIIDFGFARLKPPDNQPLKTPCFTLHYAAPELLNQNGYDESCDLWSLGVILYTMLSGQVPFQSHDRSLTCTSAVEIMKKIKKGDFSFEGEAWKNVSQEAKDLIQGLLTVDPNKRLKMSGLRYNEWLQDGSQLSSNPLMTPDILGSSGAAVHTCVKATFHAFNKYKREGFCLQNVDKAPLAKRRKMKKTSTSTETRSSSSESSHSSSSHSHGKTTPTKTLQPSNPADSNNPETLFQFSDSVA

[41] = human
[42] = molecular target: RSK3 (Homo sapiens, UniProt Q15349); experiment: Kinase panel (Millipore); assay type: biochemical; settings: 1 µM, ATP at Km

For Cn1ncc2cc(-c3cnc(N)c(Cl)c3N3CCC4(CCNC4=O)CC3)ccc21 [Compound 109, 8-(2-Amino-3-chloro-5-(1-methyl-1H-indazol-5-yl)pyridin-4-yl)-2,8-diazaspiro[4.5]decan-1-one], the “% effect” value [1] was -1%, the “% effect” value [2] was 8% and the “% effect” value [3] was 6%. The inhibition at 10 µM [4] was -12%, the “% effect” value [5] was -2% and the inhibition at 10 µM [6] was -6%. For the same compound, the “% effect” value [7] was 5%, the inhibition at 10 µM [8] was 0% and the “% effect” value [9] was -7%. For the same compound, the “% effect” value [10] was 13%, the inhibition at 10 µM [11] was 11% and the “% effect” value [12] was 7%. The “% effect” value [13] was 3%, the “% effect” value [14] was 10% and the “% effect” value [15] was 2%. The “% effect” value [16] was 2%, the “% effect” value [17] was -11% and the “% effect” value [18] was -25%. For the same compound, the “% effect” value [19] was -11%, the “% effect” value [20] was 18% and the “% effect” value [21] was 5%. The “% effect” value [22] was -6%, the “% effect” value [23] was -12% and the inhibition at 10 µM [24] was -3%. For the same compound, the “% effect” value [25] was 3%, the “% effect” value [26] was -11% and the inhibition at 10 µM [27] was 0%. The “% effect” value [28] was -7%, the inhibition at 10 µM [29] was -7% and the “% effect” value [30] was 3%. The “% effect” value [31] was -3%, the Vd [32] was 2 L/kg and the clearance ([32]; iv) was 24.8 mL/min/kg. The “% Inhibition of Control Specific Binding” value [33] was 12%, the inhibition at 10 µM [34] was 7% and the “% effect” value [35] was 5%. For the same compound, the “% effect” value [36] was 5%, the “% effect” value [37] was -6% and the “% effect” value [38] was 1%. The “% effect” value [39] was -6%, the “% effect” value [40] was -3% and the Vd [41] was 1.4 L/kg. For the same compound, the clearance [41] was 6 mL/min/kg and the “% effect” value [42] was -15%.
